Reference: patent US7655632B2, “Pyrazole derivative, medicinal composition containing the same, medicinal use thereof, and intermediate for production thereof” (Kissei Pharmaceutical Co., Ltd., priority 2002, dated 2010)

Assays:
human SGLT1 = molecular target: T1, human SGLT1 (Homo sapiens, UniProt P13866); experiment: Assay for inhibitory effects on human SGLT1 activity (uptake of methyl-α-D-glucopyranoside in CS1-5-11D cells); format: cell-based; details: CHO-K1 cells stably expressing human SGLT1 (CS1-5-11D); 1 mM α-MG uptake, 37° C., 1 hour
T1 construct: expressed in transfected cells
T1 sequence (P13866 1-664): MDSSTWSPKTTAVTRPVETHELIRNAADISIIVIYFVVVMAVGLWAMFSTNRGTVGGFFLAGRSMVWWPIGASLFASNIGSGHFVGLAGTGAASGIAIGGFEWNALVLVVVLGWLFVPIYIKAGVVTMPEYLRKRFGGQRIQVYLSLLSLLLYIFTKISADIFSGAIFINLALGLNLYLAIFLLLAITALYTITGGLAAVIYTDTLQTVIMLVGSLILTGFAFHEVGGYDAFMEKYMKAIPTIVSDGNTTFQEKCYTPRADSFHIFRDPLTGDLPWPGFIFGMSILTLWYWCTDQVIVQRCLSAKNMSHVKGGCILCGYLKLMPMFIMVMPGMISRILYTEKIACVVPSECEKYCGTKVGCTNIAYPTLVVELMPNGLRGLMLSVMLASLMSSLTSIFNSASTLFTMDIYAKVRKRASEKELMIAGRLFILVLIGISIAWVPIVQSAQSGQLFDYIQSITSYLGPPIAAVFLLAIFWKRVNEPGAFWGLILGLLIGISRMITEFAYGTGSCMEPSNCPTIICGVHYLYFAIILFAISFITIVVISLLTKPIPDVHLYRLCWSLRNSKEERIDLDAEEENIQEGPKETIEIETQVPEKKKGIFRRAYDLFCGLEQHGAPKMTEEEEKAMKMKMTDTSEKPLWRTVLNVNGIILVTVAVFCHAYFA
Experimental: Assay for Inhibitory Effects on Human SGLT1 Activity
1) Cloning and Construction of the Vector Expressing Human SGLT1
The cDNA library was prepared for PCR amplification by reverse transcription from total RNA deprived from human small intestine (Ori gene) using oligo-dT as a primer. Using this cDNA library as a template, the DNA fragment coding 1 to 2005 bp of human SGLT1 (ACCESSION: M24847), which was reported by Hediger et al., was amplified by PCR method and inserted into the multi-cloning site of pcDNA3.1(−) (Invitrogen). The DNA sequence inserted was perfectly matched to the previously reported sequence.
2) Establishment of Cell Line Stably Expressing Human SGLT1
The expression vector of human SGLT1 was digested by Sca I into a linear DNA. The linear DNA was transfected into CHO-K1 cells by means of lipofection (Effectene Transfection Reagent: QIAGEN). Neomycin resistant cell lines were selected by culture in the medium containing G418 (1 mg/mL, LIFE TECHNOLOGIES), and then the activity against the uptake of methyl-α-D-gluco-pyranoside was measured by the method described below. […] CS1-5-11D cells were cultured in the presence of G418 at 200 μg/mL.
3) Measurement of the Inhibitory Activity Against the Uptake of methyl-α-D-glucopyranoside (α-MG)
CS1-5-11D cells were seeded into a 96-well culture plate at a density of 3×10^4 cells/well and cultured for 2 days, and were used in the uptake assay. A mixture of non-labeled (Sigma) and ^14C-labeled α-MG (Amersham Pharmcia Biotec) was added to the uptake buffer (pH 7.4; containing 140 mM sodium chloride, 2 mM potassium chloride, 1 mM calcium chloride, 1 mM magnesium chloride, 10 mM 2-[4-(2-hydroxyethyl)-1-piperazinyl]ethane sulfonic acid, and 5 mM tris(hydroxymethyl)aminomethane) at the final concentration of 1 mM. A test compound was dissolved in dimethyl sulfoxide, and then appropriately diluted with distilled water. The test compound solution was added to the uptake buffer containing 1 mM α-MG, and designated as a measurement buffer. For the control group, the measurement buffer without any test compound was prepared. For measuring the basal uptake, a basal uptake measurement buffer which contains 140 mM chorine chloride instead of sodium chloride was prepared. After removing the culture medium of CS1-5-11D cells, 180 μL of the pre-treatment buffer (the basal uptake buffer without α-MG) was added to each well and incubated at 37° C. for 10 minutes. After repeating the same treatment, the pre-treatment buffer was removed. To each well was added 75 μL of the measurement buffer or the basal uptake buffer was added and incubated at 37° C. for 1 hour. After removing the measurement buffer, cells were washed twice with 180 μL per well of the washing buffer (the basal uptake buffer containing 10 mM non-labeled α-MG). The cells were solubilized by 75 μL per well of 0.2 mol/L sodium hydroxide. The cell lysates were transferred into PicoPlates (Packard), and then added 150 μL of MicroScint-40 (Packard) and mixed. Radioactivity was measured by means of micro-scintillation counter TopCount (Packard). One hundred % was set to the difference between the uptake in the control group and the basal uptake, and the uptake of methyl α-D-gluco-pyranoside at each drug concentration were calculated.

diabetic rats = experiment: Assay for inhibitory effects on blood glucose level increase in rats (liquid meal tolerance test in diabetic rat model); format: in vivo; details: test compound 1 mg/kg orally, liquid meal 17.25 kcal/kg, mean ± S.E.; for Plasma glucose concentration 0.5 h: 0.5 hour after drug administration; for Plasma glucose concentration 1 h: 1 hour after drug administration; for Plasma glucose concentration 0 h: pretreatment (0 h)
Experimental: Assay for Inhibitory Effects on Blood Glucose Level Increase in rats
1) Preparation of Diabetic Rat Model
Male wistar rats (Japan Charles River), aged 8 weeks old, were injected nicotinamide (230 mg/kg) intraperitoneally. Fifteen minutes after injection, they were injected streptozotocin (85 mg/kg) intravenously from tail vain under anesthesia with ether. After a week, rats were fasted overnight and then glucose tolerance test (2 g/kg) was done.
2) Liquid Meal Tolerance Test
After overnight fasted, the diabetic rats were orally administered a test compound (1 mg/kg), which was dissolved in distilled water, in the drug-treating group, or distilled water alone in a control group. Immediately after the compound administration, 17.25 kcal/kg of liquid meal (No. 038, Control diet, assorted with dextrin and maltose; Oriental Yeast Co., Ltd.) was loaded orally. The blood was collected from tail artery immediately before and after administration with the time course, and treated with heparin immediately. The blood was centrifuged, and the plasma was collected to quantify the plasma glucose concentration by glucose oxidase method. The values in the table are presented as the mean ±S.E.

Row | Compound | IC50 (human SGLT1) | Plasma glucose concentration 0.5 h (diabetic rats) | Plasma glucose concentration 1 h (diabetic rats) | Plasma glucose concentration 0 h (diabetic rats)
1 | 3-(β-D-Galactopyranosyloxy)-4-[(4-{3-[2-hydroxy-1-hydroxy-methyl-1-(methyl)ethylcarbamoyl]propyl}phenyl)methyl]-5-isopropyl-1H-pyrazole [Example 32] | 0.22 µM | 223 ± 20 mg/dL | 278 ± 32 mg/dL | 125 ± 8 mg/dL
2 | 3-(β-D-Glucopyranosyloxy)-4-({4-[3-(2-hydroxyethyl)-carbamoylpropyl]phenyl}methyl)-5-isopropyl-1H-pyrazole [Example 18] | 0.181 µM |  |  | 
3 | CC(C)c1[nH]nc(O[C@@H]2O[C@H](CO)[C@@H](O)[C@H](O)[C@H]2O)c1Cc1ccc(CCCC(=O)NCCCN(CCO)CCO)cc1 [Example 15, 3-(β-D-Glucopyranosyloxy)-5-isopropyl-4-{[4-(3-{3-[bis(2-hydroxyethyl)amino]propylcarbamoyl}propyl)phenyl]methyl}-1H-pyrazole] | 0.113 µM |  |  | 
4 | CC(C)c1[nH]nc(O[C@@H]2O[C@H](CO)[C@@H](O)[C@H](O)[C@H]2O)c1Cc1ccc(CCCC(=O)NC(CO)(CO)CO)cc1 [Example 21, 3-(β-D-Glucopyranosyloxy)-4-[(4-{3-[2-hydroxy-1,1-bis-(hydroxymethyl)ethylcarbamoyl]propyl}phenyl)methyl]-5-isopropyl-1H-pyrazole] | 0.012 µM | 156 ± 15 mg/dL | 178 ± 19 mg/dL | 118 ± 9 mg/dL
5 | CC(C)c1[nH]nc(O[C@@H]2O[C@H](CO)[C@@H](O)[C@H](O)[C@H]2O)c1Cc1ccc(CCCC(=O)NC(C)(C)C(N)=O)cc1 [Example 24, 4-[(4-{3-[1-Carbamoyl-1-(methyl)ethylcarbamoyl]propyl}-phenyl)methyl]-3-(β-D-glucopyranosyloxy)-5-isopropyl-1H-pyrazole] | 0.024 µM |  |  | 
6 | CC(C)c1[nH]nc(O[C@@H]2O[C@H](CO)[C@@H](O)[C@H](O)[C@H]2O)c1Cc1ccc(/C=C/C(=O)NC(C)(CO)CO)cc1 [Example 27, 3-(β-D-Glucopyranosyloxy)-4-[(4-{(1E)-2-[2-hydroxy-1-hydroxymethyl-1-(methyl)ethylcarbamoyl]vinyl}phenyl)-methyl]-5-isopropyl-1H-pyrazole] | 0.237 µM |  |  | 
7 | CC(C)c1[nH]nc(O[C@@H]2O[C@H](CO)[C@@H](O)[C@H](O)[C@H]2O)c1Cc1ccc(/C=C/C(=O)NC(CO)(CO)CO)cc1 [Example 28, 3-(β-D-Glucopyranosyloxy)-4-[(4-{(1E)-2-[2-hydroxy-1,1-bis-(hydroxymethyl)ethylcarbamoyl]vinyl}phenyl)methyl]-5-isopropyl-1H-pyrazole] | 0.267 µM |  |  | 
8 | CC(C)c1[nH]nc(O[C@@H]2O[C@H](CO)[C@@H](O)[C@H](O)[C@H]2O)c1Cc1ccc(/C=C/C(=O)NC(C)(C)C(N)=O)cc1 [Example 29, 4-[(4-{(1E)-2-[1-Carbamoyl-1-(methyl)ethylcarbamoyl]vinyl}-phenyl)methyl]-3-(β-D-glucopyranosyloxy)-5-isopropyl-1H-pyrazole] | 0.431 µM |  |  | 
9 | CC(C)c1[nH]nc(O[C@@H]2O[C@H](CO)[C@@H](O)[C@H](O)[C@H]2O)c1Cc1ccc(CCCC(=O)NC(C)(C)C(=O)NCCO)cc1 [Example 30, 3-(β-D-Glucopyranosyloxy)-4-[(4-{3-[1-(2-hydroxyethyl-carbamoyl)-1-(methyl)ethylcarbamoyl]propyl}phenyl)methyl]-5-isopropyl-1H-pyrazole] | 0.052 µM | 163 ± 8 mg/dL | 187 ± 9 mg/dL | 121 ± 6 mg/dL
10 | CC(C)c1[nH]nc(O[C@@H]2O[C@H](CO)[C@@H](O)[C@H](O)[C@H]2O)c1Cc1ccc(CCCC(=O)NC(C)(C)C(=O)NCC(N)=O)cc1 [Example 31, 4-[(4-{3-[1-Carbamoylmethylcarbamoyl-1-(methyl)ethyl-carbamoyl]propyl}phenyl)methyl]-3-(β-D-glucopyranosyloxy)-5-isopropyl-1H-pyrazole] | 0.096 µM |  |  | 
11 | CC(C)c1[nH]nc(O[C@@H]2O[C@H](CO)[C@H](O)[C@H](O)[C@H]2O)c1Cc1ccc(CCCC(=O)NC(C)(C)C(N)=O)cc1 [Example 33, 4-[(4-{3-[1-Carbamoyl-1-(methyl)ethylcarbamoyl]propyl}-phenyl)methyl]-3-(β-D-galactopyranosyloxy)-5-isopropyl-1H-pyrazole] | 0.174 µM | 207 ± 8 mg/dL | 251 ± 21 mg/dL | 127 ± 11 mg/dL
12 | CC(C)c1[nH]nc(O[C@@H]2O[C@H](CO)[C@@H](O)[C@H](O)[C@H]2O)c1Cc1ccc(CCCS(=O)(=O)NCCN)cc1 [Example 34, 4-({4-[3-(2-Aminoethylsulfamoyl)propyl]phenyl}methyl)-3-(β-D-glucopyranosyloxy)-5-isopropyl-1H-pyrazole] | 0.245 µM |  |  | 
13 | CC(C)c1[nH]nc(O[C@@H]2O[C@H](CO)[C@@H](O)[C@H](O)[C@H]2O)c1Cc1ccc(CCCS(=O)(=O)NC(C)(C)C(N)=O)cc1 [Example 35, 4-[(4-{3-[1-Carbamoyl-1-(methyl)ethylsulfamoyl]propyl}-phenyl)methyl]-3-(β-D-glucopyranosyloxy)-5-isopropyl-1H-pyrazole] | 0.115 µM |  |  | 
14 | CC(C)c1[nH]nc(O[C@@H]2O[C@H](CO)[C@H](O)[C@H](O)[C@H]2O)c1Cc1ccc(CCCC(=O)NC(C)(C)C(=O)N2CCN(CCO)CC2)cc1 [Example 48, 3-(β-D-Galactopyranosyloxy)-4-[(4-{3-[1-{[4-(2-hydroxy-ethyl)piperazin-1-yl]carbonyl}-1-(methyl)ethylcarbamoyl]-propyl}phenyl)methyl]-5-isopropyl-1H-pyrazole] | 0.031 µM | 139 ± 4 mg/dL | 132 ± 4 mg/dL | 112 ± 5 mg/dL
15 | CC(C)c1[nH]nc(O[C@@H]2O[C@H](CO)[C@H](O)[C@H](O)[C@H]2O)c1Cc1ccc(CCCC(=O)NC(C)(C)C(=O)N2CCNCC2)cc1 [Example 57, 3-(β-D-Galactopyranosyloxy)-5-isopropyl-4-{[4-(3-{1-[(piperazin-1-yl)carbonyl]-1-(methyl)ethylcarbamoyl}-propyl)phenyl]methyl}-1H-pyrazole] | 0.039 µM |  |  | 
